Experimental data: patent US20090221989A1, “SYSTEM AND METHOD FOR THE PREVENTION AND TREATMENT OF BACTERIAL AND FUNGAL INFECTIONS INCLUDING URINARY TRACT INFECTIONS (UTI) USING A HYPOHALOUS ACID COMPOSITION” (Novabay Pharmaceuticals Inc, priority 2005, published 2009)

Tests used:
[1] = system: urease positive Escherichia coli ATCC 25922 biofilm; test: Biofilm prevention in in vitro urinary catheter flow model; type: cell-based
Procedure: Day 0: The test system, as described in detail above, utilized size 14 Foley catheters, cut and installed into a pre-sterilized flow system using aseptic techniques. Sterile medium was supplied to the system via a flow-break, to prevent back-growth into the medium reservoir. The entire system was placed into a 37 AC incubator. After conditioning the system with artificial urine medium for 30 minutes, each catheter was treated with a disinfectant. 20.0 ml of each treatment solution was loaded into 30 ml syringes and connected to a syringe pump. Sterile sections of tubing were attached from the syringe to the valve furthest from the flow break (bag end of the catheter). This end is designated as FRONT for sampling purposes. The pump was turned on and the treatments were introduced at 2.0 ml/min for 10 minutes through the catheters. Excess medium and treatment solution was captured in a waste container. After 10 minutes, the syringe pump was turned off and the solutions were left stationary in the catheters for 30 minutes. The solutions were then withdrawn back through the catheter into the syringe. The catheters were then rinsed with sterile medium for 30 minutes. On Day 0 only: An inoculum from an overnight culture of urease positive Escherichia coli ATCC 25922 grown in artificial urine medium at 37° C. was introduced into the system via the valve closest to the flow break (bladder side of catheter). Each inoculum was tested for confirmation of urease production. After inoculation, the system remained under static conditions (no flow) for two hours, to allow for bacterial attachment to the catheters. Flow of artificial urine medium was then initiated and maintained at a rate of 0.75 ml/min. Days 1, 3 and 5: For viable cell counts, a 3.0 centimeter section of tubing was removed and scraped with a sterile stainless steel rod (using aseptic technique) into a tube containing 10.0 ml of sterile PBS. The tubes were then sonicated for two minutes and the suspension was vortexed for one minute. The number of viable (culturable) bacteria was enumerated by serial dilution in PBS and plate counts using the spread-plate technique. Results are expressed as CFU/cm^2 and were calculated as described in Phase One. Days 1 and 3: After sampling, the catheters were disinfected and rinsed with sterile medium as described above. Days 2 and 4: the catheters were disinfected and rinsed with sterile medium as described above. No samples were taken. Day 5: Samples were taken for imaging and both ends of the catheter were sampled for viable cell count data.

[2] = system: E. coli and Pr. mirabilis biofilm; test: Biofilm disinfection on Foley catheter pieces, both organisms pooled: re-culture OD600, overall CFU, visual examination; type: cell-based, Escherichia coli; Proteus mirabilis; settings: HOCl 2 mM in 0.9% saline pH 3.5
Procedure: The ability of HOCl to destroy biofilm formation was evaluated as follows. First, biofilm was established on 1-cm-long pieces of catheter for 48 hours in nutrient broth in the presence of either Proteus mirabilis or Escherichia coli. Subsequently, the biofilm-bearing pieces of catheter were exposed to 2 mM HOCl in 0.9% saline at pH 3.5 over various periods of time. After the exposures the pieces of catheter were transferred into 1 mL of neutralizer broth to stop the reaction. 0.1 mL (10%) of the neutralizer broth was then plated out onto nutrient agar and the number of colonies was counted. The CFU (Colony Forming Unit) values obtained were multiplied by 10 to obtain the actual CFU/mL values per treated sample. In order to measure the amount of live bacteria left on the pieces of catheter following treatment, the biofilm-bearing pieces of catheter were transferred into tubes containing fresh growth medium. After allowing growth in a shaker at 37° C. for 4 hours, Optical Density (OD) was read at 600 nm. […] This was also shown by very low optical density readings (average of 0.057 OD600 units, individual data not listed) following the attempt to re-culture the bacteria from treated catheters.

[3] = system: Proteus mirabilis ATCC 29245 biofilm; test: Biofilm disinfection on 1-cm Foley catheter pieces, plate count; type: cell-based; settings: HOCl 2 mM in 0.9% saline pH 3.5, 48 h biofilm
Procedure: (§1) We have devised a dynamic in vitro model using traditional microbiological methods to assess the antimicrobial efficacy of 2 mM HOCl in 0.9% saline at pH 3.5, as compared to physiological saline in disinfecting intra-luminal and extra-luminal indwelling Foley catheter.
(§2) Foley Catheter, manufactured by BARD HOCl (2 mM) in 0.9% saline pH 3.5 (150 mM) Escherichia coli ATCC 25922 Proteus mirabilis ATCC 29245
(§3) Neutralizer Broth: A broth containing dextrose, lecithin, sodium thiosulfate, pancreatic digest of casein, Tween® 80, yeast extract, sodium bisulfate, sodium thioglycollate, monopotassium phosphate, and bromcresol purple.
(§4) The ability of HOCl to destroy biofilm formation was evaluated as follows. First, biofilm was established on 1-cm-long pieces of catheter for 48 hours in nutrient broth in the presence of either Proteus mirabilis or Escherichia coli. Subsequently, the biofilm-bearing pieces of catheter were exposed to 2 mM HOCl in 0.9% saline at pH 3.5 over various periods of time. After the exposures the pieces of catheter were transferred into 1 mL of neutralizer broth to stop the reaction. 0.1 mL (10%) of the neutralizer broth was then plated out onto nutrient agar and the number of colonies was counted. The CFU (Colony Forming Unit) values obtained were multiplied by 10 to obtain the actual CFU/mL values per treated sample.

[4] = system: Escherichia coli ATCC 25922 biofilm; test: as above; type: cell-based; settings: HOCl 2 mM in 0.9% saline pH 3.5, 48 h biofilm
Procedure: as §1, §2, §3, §4

[5] = system: viable (culturable) bacteria on patient catheter; test: Ex-vivo treatment of a patient Foley catheter, viable plate counts; type: cell-based
Source text: A Foley catheter was removed from a patient by hospital personnel and placed in a sterile bag. In the Bozeman Deaconess Hospital (BDH) lab, the outside of the catheter was wiped down with 70% ethanol. Then the catheter was aseptically cut into 3 catheter portions (bag-end, middle and patient-end). Each portion was cut into 3.0 cm long sections using a ruler and razor blades.
Three of the sections (one bag-end, one middle and one patient-end) designated as control were placed into sterile PBS. Three of the sections (one bag-end, one middle and one patient-end) were placed in 20 mM HOCl. All catheter sections were treated for 30 minutes individually in sterile glass tubes, each with sufficient solution to be immersed completely. After treatment, each 3 cm section was removed from the treatment tubes and the PBS control tubes and placed into a second glass tube containing sterile PBS for a 2 minute rinse in order to remove the treatment solution. The section was then removed from the tube and aseptically cut into 1.0 cm and 2.0 cm pieces. The 2.0 cm piece was placed in a tube containing 10 ml of sterile PBS, vortexed, sonicated and diluted for viable plate counts. The number of viable (culturable) bacteria was enumerated by serial dilution in PBS and plate counts using the spread-plate technique. Samples were plated on blood agar plates. Results will be expressed as colony-forming units/cm^2, CFU/cm^2 (calculated as 2.0 cm length×0.25 cm (radius)×3.14 (pi)=1.57 cm^2). The 1.0 cm piece was placed in 4% formaldehyde solution.

[6] = system: urease positive Escherichia coli ATCC 25922 biofilm; test: Biofilm eradication in in vitro urinary catheter flow model; type: cell-based; settings: for Log (CFU/cm2) / Log reduction: pH 4, 0.9% NaCl; for Log (CFU/cm2): 3-day biofilm, 10 min flow + 30 min stationary, average of 9 treatments; for Log reduction: versus saline
Procedure: A test system was established which utilized size 14 Foley catheters (supplied by NovaCal), which were cut and installed into a pre-sterilized flow system (FIG. 1) using aseptic techniques. The system consists of five parallel channels, one channel per catheter. Sterile medium was supplied to the system via a flow-break, to prevent back-growth into the medium reservoir. The entire system was placed in a 37° C. incubator. After conditioning the system with artificial urine medium for 30 minutes, 2.0 ml inoculum from an overnight culture of urease positive Escherichia coli ATCC 25922 grown in artificial urine medium at 37° C. was introduced into the system via the valve closest to the flow break (bladder side of catheter). Each inoculum was tested to confirm urease production. After inoculation, the system remained under static conditions (no flow) for two hours, to allow for bacterial attachment to the catheters. Flow of artificial urine medium was then initiated and maintained at a rate of 0.75 ml/min for 3 days. Initial experiments were conducted to evaluate consistency of biofilm formation in the model system. […] Day 5 and Day 7 counts remained at approximately that level. It was decided that treatment would be performed on Day 3 to prevent the possibility of biofilm detachment occurring. […] Sterile sections of tubing were attached from the syringe to the valve furthest from the flow break (bag end of the catheter). This end is designated as FRONT for sampling purposes. The pump was turned on and the treatments were introduced at 2.0 ml/min for 10 minutes through the catheters. Excess medium and treatment solution was captured in a waste container. After 10 minutes, the syringe pump was turned off and the solutions were left stationary in the catheters for 30 minutes. The solutions were then withdrawn back through the catheter into the syringe, medium flow was resumed for a 30 minute rinse time and the catheters were then sampled. For efficient sampling: Each catheter was divided into 3 segments (front, middle, end) and each segment was subsampled. One subsample was used to determine bacterial populations by plate count, another subsample was analyzed by staining with the LIVE/DEAD® BaclightTM bacterial viability kit ([…], Molecular Probes, Oregon, USA) using confocal laser microscopy (CSLM), the third sample was imaged using scanning electron microscopy (SEM). For viable cell counts, a 3.0 centimeter section of tubing was removed and scraped with a sterile stainless steel rod (using aseptic technique) into a tube containing 10.0 ml of sterile phosphate-buffered saline (PBS). The tubes were then sonicated for two minutes and the suspension was vortexed for one minute. The number of viable (culturable) bacteria was enumerated by serial dilution in PBS and plate counts using the spread-plate technique. Results were expressed as CFU/cm^2 and are calculated as follows: The surface area of the internal lumen of the catheter section scraped was determined to be 2.826 cm^2. Three treatment runs were performed on 3 catheters each. One treated with PBS or sterile 0.9% saline as control, one treated with 2 mM HOCl and one treated with 20 mM HOCl. The Log (CFU/cm^2) was calculated from the average of 9 treatments, consisting of 3 treatments of 3 catheter pieces for each Test Article.

[7] = HOCl 20 mM, pH 4, 0.9% NaCl, 30 minutes immersion

OCl [HOCl, hypochlorous acid]
inhibition of biofilm formation ([1]; 5 day duration, 20 mM): appeared to inhibit biofilm formation
viable cell count Day 1 ([1]; Day 1, daily treatment, HOCl 20 mM pH 4 0.9% NaCl, vinegar 1:3 in water, Neomycin 1 ml in 1000 ml saline): 3.5 CFU/cm^2
viable cell count Day 3 ([1]; Day 3, daily treatment, HOCl 20 mM pH 4 0.9% NaCl, vinegar 1:3 in water, Neomycin 1 ml in 1000 ml saline): 0.0 CFU/cm^2
viable cell count Day 5 “Front” (bag end) ([1]; Day 5, bag end, daily treatment, HOCl 20 mM pH 4 0.9% NaCl, vinegar 1:3 in water, Neomycin 1 ml in 1000 ml saline): 0.0 CFU/cm^2
viable cell count Day 5 “End” (bladder end) ([1]; Day 5, bladder end, daily treatment, HOCl 20 mM pH 4 0.9% NaCl, vinegar 1:3 in water, Neomycin 1 ml in 1000 ml saline): 0.0 CFU/cm^2
inhibition of biofilm formation compared to vinegar and Neosporin ([1]; especially by Day 5, 20 mM): significantly better at inhibiting biofilm formation
visual examination of biofilm on catheter surface [2]: subsequent removal
optical density readings after re-culture of treated catheters (average) ([2]; 4 h growth at 37° C. in fresh medium, average, individual data not listed): 0.057 OD600 units
recoverable CFU/mL bacteria ([2]; catheters infected 48 hours): minimal recoverable CFU/mL bacteria
CFU/mL ([3]; exposure 5 min): 110 CFU/mL
CFU/mL ([3]; exposure 10 min): 40 CFU/mL
CFU/mL ([3]; exposure 20 min): 50 CFU/mL
CFU/mL ([3]; exposure 30 min): 0 CFU/mL
CFU/mL ([3]; exposure 45 min): 20 CFU/mL
CFU/mL ([3]; exposure 60 min): 0 CFU/mL
CFU/mL ([3]; exposure 120 min): 90 CFU/mL
CFU/mL ([3]; exposure <1 min): >>3000 CFU/mL
CFU/mL ([4]; exposure 5 min): 460 CFU/mL
CFU/mL ([4]; exposure 10 min): 0 CFU/mL
CFU/mL ([4]; exposure 20 min): 0 CFU/mL
CFU/mL ([4]; exposure 30 min): 0 CFU/mL
CFU/mL ([4]; exposure 45 min): 0 CFU/mL
CFU/mL ([4]; exposure 60 min): 0 CFU/mL
CFU/mL ([4]; exposure 120 min): 0 CFU/mL
CFU/mL ([4]; exposure <1 min): 50 CFU/mL
Log reduction ([5]; HOCl 20 mM versus sterile PBS, average of 3 pieces): 2.4
Average Log CFU/cm^2 on catheter section after treatment, Bag end [5, 7]: 0.50 Log CFU/cm^2
Average Log CFU/cm^2 on catheter section after treatment, average 3 pieces [5, 7]: 0.53 Log CFU/cm^2
Average Log CFU/cm^2 on catheter section after treatment, middle [5, 7]: 0.58 Log CFU/cm^2
Average Log CFU/cm^2 on catheter section after treatment, patient end [5, 7]: 0.50 Log CFU/cm^2
Log (CFU/cm2) ([6]; HOCl 2 mM): 4.8 Log (CFU/cm2)
Log reduction ([6]; HOCl 2 mM): −4.3
bacterial removal, higher versus lower concentration ([6]; HOCl 20 mM versus 2 mM): significantly more bacterial removal than the lower concentration
Log (CFU/cm2) ([6]; HOCl 20 mM): 2.5 Log (CFU/cm2)
Log reduction ([6]; HOCl 20 mM): −6.6
bacterial counts and presence of biofilm (visual interpretation from images) ([6]; HOCl at 2 mM and 20 mM): significantly reduced bacterial counts and the presence of biofilm
